Reference: US10265132B2, “Antimicrobial elastomeric articles” (ALLEGIANCE CORPORATION, priority 2012, dated 2019)

Tests used:
[1] = tested on: E. coli; experiment: Antimicrobial activity (log reduction) of coated gloves against E. coli, 5 minute exposure time
Experimental: (§1) Antimicrobial Activity: The antimicrobial activity of sample 1-1 was tested before and after aging against E. coli and MRSA with a 5 minute exposure time:
(§2) The coating composition and formulation fabrication remained the same as describe in Example 1. Sample 2-1 describes coated gloves that were stored in desiccated environments (described above in Example 1) before and after the application of the antimicrobial coating. Samples 2-2 and 2-3 represent coated gloves that were pre- and post-conditioned (using the technique described above in Example 1), respectively. Sample 2-4 describes coated gloves that were not desiccated before or after application of the antimicrobial coating. Samples 2-1 through 2-4 were tested before and after conditioning against E. coli and MRSA with a 5 minute exposure time.
The coating composition, formulation fabrication, and coating application method remained the same as described in Example 1, Sample 3-1 describes antimicrobial-coated gloves that were exposed to 23° C. with a relative humidity of 45%. Sample 3-2 describes antimicrobial-coated gloves that were exposed to 23° C. with a relative humidity of 55%. Sample 3-3 describes antimicrobial-coated gloves that were exposed to 23° C. with a relative humidity of 75%. All samples were tested after one and two weeks exposure to the temperature and humidity levels. Antimicrobial efficacy was recorded against E. coli after a 5 minute exposure time. […]
(§3) The formulation fabrication and coating application were the same as described in Example 1. […] These formulations were then applied to the gloves and the concentration of CHG needed on the coated glove in order to achieve at least 4 log efficacy was measured. The concentration of CHG was measured using UV-Visible spectroscopy with the assistance of a sodium hypobromite indicator. CHG was extracted from the glove using water and the unknown concentration was calculated versus a predetermined standard curve. The antimicrobial efficacy after an exposure time of 5 minutes was determined against E. coli and MRSA.

[2] = tested on: broad spectrum of microbes; experiment: Minimum concentration of CHG on coated glove needed for 4 log efficacy in 5 minutes; settings: 5 minutes exposure, E. coli and MRSA
Experimental: The formulation fabrication and coating application were the same as described in Example 1. The concentration of the active component, CHG, was varied in the formulation. These formulations were then applied to the gloves and the concentration of CHG needed on the coated glove in order to achieve at least 4 log efficacy was measured. The concentration of CHG was measured using UV-Visible spectroscopy with the assistance of a sodium hypobromite indicator. CHG was extracted from the glove using water and the unknown concentration was calculated versus a predetermined standard curve. The antimicrobial efficacy after an exposure time of 5 minutes was determined against E. coli and MRSA.

[3] = tested on: MRSA; experiment: Antimicrobial activity (log reduction) of coated gloves against MRSA, 5 minute exposure time; design: species or system methicillin-resistant Staphylococcus aureus
Experimental: as §1, §2
The coating composition, formulation fabrication, and coating application method remained the same as described in Example 1. Antimicrobial gloves were packed into two packaging prototypes. The prototypes contained the antimicrobial coated gloves and the prototypes were subjected to outside conditions meant to simulated real world conditions experienced by medical glove products. Sample 4-1 is a control glove that was not packaged. Sample 4-2 is a packaging prototype comprised of Amcor aluminum foil laminate packaging containing antimicrobial-coated gloves and desiccant. […]
as §3

[4] = CHG concentration on glove 2.09 μg/cm^2, 5 minutes exposure
[5] = CHG concentration on glove 7.63 μg/cm^2, 5 minutes exposure
[6] = CHG concentration on glove 11.90 μg/cm^2, 5 minutes exposure

With `N=C(NCCCCCCNC(=N)NC(=N)Nc1ccc(Cl)cc1)NC(=N)Nc1ccc(Cl)cc1.O=C(O)[C@H](O)[C@@H](O)[C@H](O)[C@H](O)CO.O=C(O)[C@H](O)[C@@H](O)[C@H](O)[C@H](O)CO` [CHG, chlorhexidine digluconate] the “Log Reduction E. coli” value [1, 4] was 1.67 log, the “Log Reduction E. coli” value [1, 5] was 4.18 log and the “Log Reduction E. coli” value [1, 6] was 4.72 log. For the same compound, the “CHG needed to offer 4 log antimicrobial efficacy” value [2] was “about 7.6 μg”, the “Log Reduction MRSA” value [3, 4] was 3.08 log and the “Log Reduction MRSA” value [3, 5] was 4.16 log. For the same compound, the “Log Reduction MRSA” value [3, 6] was 4.06 log.
